Measured values reported in the Biogen ADME set (Fang et al. 2023).
Values after ≈ are worked out from the molar mass of the structure shown.

Details: for aqueous solubility: pH 6.8

| SMILES | intrinsic clearance, human liver microsomes | intrinsic clearance, rat liver microsomes | MDR1-MDCK efflux ratio | aqueous solubility |
| --- | --- | --- | --- | --- |
| COCC(=O)NC1(C#Cc2ccc(NC(=O)C3CC3)nc2)CCCCC1 | 16.7 mL/min/kg | 153 mL/min/kg | – | – |
| N#Cc1ccc2nc(NCCn3ccnc3)ccc2c1 | 6.36 mL/min/kg | 54.5 mL/min/kg | 4.78 | – |
| COC(C)(C)CCNC(=O)CC1CC(C)(C)NC(C)(C)C1 | ≤ 4.74 mL/min/kg | 41.1 mL/min/kg | 12.9 | – |
| COC(=O)c1c(C)[nH]c(C(=O)OCC(=O)N(C)Cc2cccs2)c1C | 54.1 mL/min/kg | 484 mL/min/kg | 1.47 | 40.6 µg/mL (≈ 111 µM) |
| Cc1ccc(CN(C)c2ncnc3c2cnn3C)o1 | 19.2 mL/min/kg | 223 mL/min/kg | 0.657 | 40.9 µg/mL (≈ 159 µM) |
| OCCC1(CNc2ncc(Br)cn2)CC1 | 8.65 mL/min/kg | 81.9 mL/min/kg | 0.674 | – |
| O=C(O)c1cc(/N=N/c2ccc(S(=O)(=O)Nc3ccccn3)cc2)ccc1O | ≤ 4.74 mL/min/kg | 50.5 mL/min/kg | 0.459 | 54.5 µg/mL (≈ 137 µM) |
| O=C(Nc1ccccc1)Nc1ccccc1 | 16 mL/min/kg | 91.4 mL/min/kg | – | 3.9 µg/mL (≈ 18.4 µM) |
| Cc1ccc(CCNC(=O)c2ccncc2)o1 | ≤ 4.74 mL/min/kg | 52.3 mL/min/kg | 0.705 | 29.3 µg/mL (≈ 127 µM) |
| O=C(NCc1ccc(CN2CCS(=O)(=O)CC2)cc1)c1ccon1 | ≤ 4.74 mL/min/kg | ≤ 10.7 mL/min/kg | – | – |
| CC(C)c1nnc(CN(C(C)C)C2CCOCC2)o1 | 6.75 mL/min/kg | 220 mL/min/kg | 0.93 | – |
| Cc1ccc(F)cc1CNc1cc(C(=O)N(C)C)ccn1 | 11.1 mL/min/kg | 399 mL/min/kg | 1.06 | 47.4 µg/mL (≈ 165 µM) |
| CCc1[nH]nc(NC2CCN(C(C)C)CC2)c1C | ≤ 4.74 mL/min/kg | 163 mL/min/kg | 13.7 | – |
| COc1ccc(C)nc1-c1ccc(OC)c(OC)c1OC | ≤ 4.74 mL/min/kg | 359 mL/min/kg | 0.981 | – |
| Cc1cc(C(=O)N(C)Cc2ccc(Br)cc2)no1 | 92.8 mL/min/kg | 941 mL/min/kg | 0.69 | 64 µg/mL (≈ 207 µM) |

Continued, values first:

| intrinsic clearance, human liver microsomes | intrinsic clearance, rat liver microsomes | MDR1-MDCK efflux ratio | aqueous solubility | SMILES |
| --- | --- | --- | --- | --- |
| 125 mL/min/kg | 804 mL/min/kg | 0.804 | 1.09 µg/mL (≈ 2.84 µM) | Cc1cc(C)c(C#N)c(N2CCN(CC(=O)Nc3ccccc3Cl)CC2)n1 |
| ≤ 4.74 mL/min/kg | ≤ 10.7 mL/min/kg | 21.5 | 90 µg/mL (≈ 213 µM) | CNC(=O)c1ccc2c(c1)CCO[C@H]2CCN1CCN(c2ccc(C(N)=O)cc2)CC1 |
| ≤ 4.74 mL/min/kg | 90.1 mL/min/kg | – | – | Cc1ccc(=O)n(CC2(O)CCN(Cc3ccc4ccccc4n3)CC2)n1 |
| ≤ 4.74 mL/min/kg | 11.1 mL/min/kg | 0.559 | 45.4 µg/mL (≈ 179 µM) | Cc1cc(C(=O)Nc2cccc3ncccc23)on1 |
| 34.8 mL/min/kg | 231 mL/min/kg | – | – | CC(=O)Nc1sc2c(c1-c1nc3ccccc3s1)CCN(C(C)C)C2 |
| 9.63 mL/min/kg | 109 mL/min/kg | 0.813 | – | Cc1cc(NC(=O)[C@H](C)N(C)C)c2ccccc2n1 |
| 14.5 mL/min/kg | 343 mL/min/kg | 0.38 | – | O=C(Nc1ccc2[nH]ncc2c1)[C@H]1CCCNC1 |
| ≤ 4.74 mL/min/kg | 2290 mL/min/kg | 1.4 | – | COc1cccc(OC)c1-c1ccc(OCCN2CCCC2)cc1 |
